The record followed here is patent US9930890B2 (priority 2010, dated 2018).

The conditions of data set [1]: for logp [a]: pH 2.7; for logp [b]: pH 7.8.
For another data set, the system named is Plasmopara viticola. The data set can be described thus: Plasmopara test (grapevine)/protective. The data set is classed as in vivo. To be noted: grapevine young plants, protective spray, active ingredient concentration 10 ppm, evaluation 6 days after inoculation; 0% = control, 100% = no infection. As for the experimental part: Plasmopara Test (Grapevine)/Protective
To produce an appropriate active ingredient formulation, 1 part by weight of active ingredient is mixed with the specified amounts of solvent and emulsifier, and the concentrate is diluted with water to the desired concentration.
To test for protective efficacy, young plants are sprayed with the active ingredient formulation at the stated application rate. After the spray coating has dried on, the plants are inoculated with an aqueous spore suspension of Plasmopara viticola and then remain in an incubation cabin at approx. 20° C. and 100% relative air humidity for 1 day. Subsequently, the plants are placed in a greenhouse at approx. 21° C. and approx. 90% air humidity for 4 days. The plants are then moistened and placed in an incubation cabin for 1 day.
Evaluation follows 6 days after the inoculation. 0% means an efficacy which corresponds to that of the control, whereas an efficacy of 100% means that no infection is observed.
In this test, the following inventive compounds show, at an active ingredient concentration of 10 ppm, an efficacy of 70% or more: […]

A further data set relates to Phytophthora infestans. The data set is classed as in vivo. To be noted: tomato plants, protective spray, active ingredient concentration 100 ppm, evaluation 7 days after inoculation; 0% = control, 100% = no infection.

For `CON=C(C)c1cccc(C2CC(c3csc(C4CCN(C(=O)Cn5nc(C(F)(F)F)cc5C)CC4)n3)=NO2)c1` (mixture of isomers) [I-3], in data set [1], the “logp [a]” value is 3.7[a]. For the same compound, the Eff. % with Plasmopara viticola is listed as 97%; in the data set with Phytophthora infestans, 100%.

In the case of `CCON=C(C)c1cccc(C2CC(c3csc(C4CCN(C(=O)Cn5nc(C(F)F)cc5C(F)F)CC4)n3)=NO2)c1` (mixture of isomers) [I-5], the Eff. % was found to be 87% in the data set with Plasmopara viticola and 100% in the data set on Phytophthora infestans.

With `CC(=NO)c1cccc(C2CC(c3csc(C4CCN(C(=O)Cn5nc(C(F)(F)F)cc5C)CC4)n3)=NO2)c1` (mixture of isomers) [I-7], the “logp [a]” value in data set [1] is 2.8[a]. For the same compound, the Eff. % with Plasmopara viticola and with Phytophthora infestans was 100% each time.

Consider `Cc1cc(C(F)(F)F)nn1CC(=O)N1CCC(c2nc(C3=NOC(c4cccc(C=NO)c4)C3)cs2)CC1` (mixture of isomers) [I-10], for which the results for the Eff. % in the data set with Plasmopara viticola and with Phytophthora infestans were 92% and 100%, respectively.

As for `Cc1ccc(Cl)cc1NC(=O)N1CCC(c2nc(C3=NOC(c4cccc(C=NO)c4)C3)cs2)CC1` (mixture of isomers) [I-14], the Eff. % in the data set with Plasmopara viticola and in the data set on Phytophthora infestans was 100% each time.

For the compound `CON=Cc1cccc(C2CC(c3csc(C4CCN(C(=O)Cn5nc(C(F)(F)F)cc5C)CC4)n3)=NO2)c1` (mixture of isomers) [I-15], the Eff. % in the data set with Plasmopara viticola is 81%; with Phytophthora infestans, 100%.

In turn, `CON=Cc1cccc(C2CC(c3csc(C4CCN(C(=O)Cn5nc(C(F)F)cc5C(F)F)CC4)n3)=NO2)c1` (mixture of isomers) [I-16] displayed an Eff. % in the data set on Plasmopara viticola of 94%.

Regarding `CC(=NO)c1cccc(C2CC(c3csc(C4CCN(C(=O)Cn5nc(C(F)F)cc5C(F)F)CC4)n3)=NO2)c1` (mixture of isomers) [I-18], the Eff. % with Plasmopara viticola and in the data set on Phytophthora infestans was 100% throughout.

Turning to `CON=Cc1cccc(C2CC(c3csc(C4CCN(C(=O)Nc5cc(Cl)ccc5C)CC4)n3)=NO2)c1` (mixture of isomers) [I-19], the Eff. % in the data set with Plasmopara viticola and with Phytophthora infestans was 100% each time.

Consider `CON=C(C)c1cccc(C2CC(c3csc(C4CCN(C(=O)Cn5nc(C(F)F)cc5C(F)F)CC4)n3)=NO2)c1` (mixture of isomers) [I-21], for which the Eff. % with Plasmopara viticola and in the data set with Phytophthora infestans was 100% throughout.

`O=C(Cn1nc(C(F)F)cc1C(F)F)N1CCC(c2nc(C3=NOC(c4cccc(C=NO)c4)C3)cs2)CC1` (mixture of isomers) [I-22]: the Eff. % in the data set on Plasmopara viticola and in the data set on Phytophthora infestans was 100% each time.

As to `CON=C(C)c1cccc(C2CC(c3csc(C4CCN(C(=O)Nc5cc(Cl)ccc5C)CC4)n3)=NO2)c1` (mixture of isomers) [I-23], the Eff. % with Plasmopara viticola came out at 98%; in the data set on Phytophthora infestans it was 100%.

`CCON=Cc1ccccc1C1CC(c2csc(C3CCN(C(=O)Cn4nc(C(F)F)cc4C(F)F)CC3)n2)=NO1` (mixture of isomers) [I-27]: the Eff. % is listed as 99% with Plasmopara viticola and 100% in the data set on Phytophthora infestans.

On to `CON=C(C)c1ccccc1C1CC(c2csc(C3CCN(C(=O)Cn4nc(C(F)(F)F)cc4C)CC3)n2)=NO1` (mixture of isomers) [I-31], for which the values for the Eff. % with Plasmopara viticola and with Phytophthora infestans were 97% and 100%, respectively.

`CON=C(C)c1ccccc1C1CC(c2csc(C3CCN(C(=O)Cn4nc(C(F)F)cc4C(F)F)CC3)n2)=NO1` (mixture of isomers) [I-32]: the Eff. % with Plasmopara viticola is 85%; with Phytophthora infestans, 100%.

In the case of `O=C(Cn1nc(C(F)F)cc1C(F)F)N1CCC(c2nc(C3=NOC(c4ccccc4C=NO)C3)cs2)CC1` (mixture of isomers) [I-35], the Eff. % was 100% with Plasmopara viticola and 95% in the data set on Phytophthora infestans.

`Cc1ccc(Cl)cc1NC(=O)N1CCC(c2nc(C3=NOC(c4ccccc4C=NO)C3)cs2)CC1` (mixture of isomers) [I-36]: the Eff. % in the data set with Plasmopara viticola and in the data set on Phytophthora infestans was 100% in each case.

As for `CC(=O)Nc1ccc(C2CC(c3csc(C4CCN(C(=O)Cn5nc(C(F)F)cc5C(F)F)CC4)n3)=NO2)cc1` (racemic) [I-25], the “logp [a]” value in data set [1] was 2.2[a],. The compound further displayed an Eff. % with Plasmopara viticola of 97%.

Turning to `CS(=O)(=O)Oc1cc(Cl)ccc1C1CC(c2csc(C3CCN(C(=O)Cn4nc(C(F)F)cc4C(F)F)CC3)n2)=NO1` (centres unmarked) [I-70], in data set [1], the “logp [a]” value is 3.27[a], and the “logp [b]” value is 3.27[b]. This compound displayed an Eff. % in the data set on Phytophthora infestans of 97%.

As to `N#CCOc1cc(Cl)ccc1C1CC(c2csc(C3CCN(C(=O)Cn4nc(C(F)F)cc4C(F)F)CC3)n2)=NO1` (centres unmarked) [I-71], in data set [1], the “logp [a]” value was 3.23[a], and the “logp [b]” value is 3.22[b]. This compound registered an Eff. % in the data set on Phytophthora infestans of 100%.

Regarding `N#CCOc1cccc(Cl)c1C1CC(c2csc(C3CCN(C(=O)Cn4nc(C(F)F)cc4C(F)F)CC3)n2)=NO1` (centres unmarked) [I-75], in data set [1], the “logp [a]” value is 3.19[a], and the “logp [b]” value is 3.11[b]. Besides, the Eff. % with Plasmopara viticola is reported as 100%.

As for `C=CCOCc1ccccc1C1CC(c2csc(C3CCN(C(=O)Cn4nc(C(F)(F)F)cc4C)CC3)n2)=NO1` (centres unmarked) [I-93], the “logp [a]” value in data set [1] was 3.84[a]. For the same compound, the Eff. % with Phytophthora infestans was determined as 95%.

In the case of `C=CCOCc1ccccc1C1CC(c2csc(C3CCN(C(=O)Cn4nc(C(F)F)cc4C(F)F)CC3)n2)=NO1` (centres unmarked) [I-94], the “logp [a]” value in data set [1] was 3.63[a]. The compound also came in with an Eff. % in the data set with Phytophthora infestans of 100%.

Turning to `Cc1cc(C(F)(F)F)nn1CC(=O)N1CCC(c2nc(C3=NOC(c4cccc(OCC#N)c4)C3)cs2)CC1` (centres unmarked) [I-95], in data set [1], the “logp [a]” value was 3.06[a], and the “logp [b]” value was 2.97[b]. The Eff. % in the data set on Phytophthora infestans is listed as 100%.

Turning to `Cc1cc(C(F)(F)F)nn1CC(=O)N1CCC(c2nc(C3=NOC(c4ccc(OS(C)(=O)=O)cc4)C3)cs2)CC1` (centres unmarked) [I-96], in data set [1], the “logp [a]” value is 2.9[a], and the “logp [b]” value is 2.81[b]. Also, in the data set on Phytophthora infestans, the Eff. % stood at 95%.

As for `CCS(=O)(=O)Oc1ccc(C2CC(c3csc(C4CCN(C(=O)Cn5nc(C(F)(F)F)cc5C)CC4)n3)=NO2)cc1` (centres unmarked) [I-97], in data set [1], the “logp [a]” value was 3.14[a], and the “logp [b]” value is 3.05[b]. Also, in the data set on Phytophthora infestans, the Eff. % was 95%.

Turning to `Cc1cc(C(F)(F)F)nn1CC(=O)N1CCC(c2nc(C3=NOC(c4ccc(OS(=O)(=O)C5CC5)cc4)C3)cs2)CC1` (centres unmarked) [I-98], in data set [1], the “logp [a]” value was 3.22[a], and the “logp [b]” value was 3.13[b]. Further, the Eff. % with Phytophthora infestans is recorded as 95%.

Regarding `CCS(=O)(=O)Oc1cccc(C2CC(c3csc(C4CCN(C(=O)Cn5nc(C(F)(F)F)cc5C)CC4)n3)=NO2)c1` (centres unmarked) [I-99], in data set [1], the “logp [a]” value was 3.18[a], and the “logp [b]” value is 3.08[b]. In the data set on Phytophthora infestans, this compound had an Eff. % of 100%.

As to `COCCSCc1ccccc1C1CC(c2csc(C3CCN(C(=O)Cn4nc(C(F)F)cc4C(F)F)CC3)n2)=NO1` (centres unmarked) [I-100], the “logp [a]” value in data set [1] is 3.5[a]. In the data set on Phytophthora infestans, the Eff. % was found to be 100%.

Regarding `Cc1cc(C(F)(F)F)nn1CC(=O)N1CCC(c2nc(C3=NOC(c4cccc(OS(=O)(=O)C5CC5)c4)C3)cs2)CC1` (centres unmarked) [I-101], in data set [1], the “logp [a]” value is 3.25[a], and the “logp [b]” value was 3.12[b]. The compound further came in with an Eff. % in the data set on Phytophthora infestans of 100%.

Turning to `C=CC(=O)Oc1ccccc1C1CC(c2csc(C3CCN(C(=O)Cn4nc(C(F)(F)F)cc4C)CC3)n2)=NO1` (centres unmarked) [I-104], in data set [1], the “logp [a]” value was 3.38[a], and the “logp [b]” value was 3.3[b]. Besides, the Eff. % in the data set on Phytophthora infestans is on record as 97%.

Take `O=C(Cn1nc(C(F)F)cc1C(F)F)N1CCC(c2nc(C3=NOC(c4ccccc4OC(=O)C4(Cl)CC4)C3)cs2)CC1` (centres unmarked) [I-107]: in data set [1], the “logp [a]” value was 3.66[a], and the “logp [b]” value is 3.57[b]. The same compound displayed an Eff. % in the data set on Phytophthora infestans of 100%.

Consider `Cc1cc(C(F)(F)F)nn1CC(=O)N1CCC(c2nc(C3=NOC(c4ccccc4NC=O)C3)cs2)CC1` (centres unmarked) [I-109], for which, in data set [1], the “logp [a]” value was 2.49[a], and the “logp [b]” value was 2.39[b]. This compound also gave an Eff. % in the data set on Phytophthora infestans of 100%.

On to `N#CCOc1cccc(C2CC(c3csc(C4CCN(C(=O)Cn5nc(C(F)F)cc5C(F)F)CC4)n3)=NO2)c1` (centres unmarked) [I-110], for which, in data set [1], the “logp [a]” value was 2.95[a], and the “logp [b]” value was 2.88[b]. Besides, the Eff. % with Phytophthora infestans is recorded as 100%.

`Cc1cc(C(F)(F)F)nn1CC(=O)N1CCC(c2nc(C3=NOC(c4cccc(F)c4OCC#N)C3)cs2)CC1` (centres unmarked) [I-111]: in data set [1], the “logp [a]” value was 3.22[a], and the “logp [b]” value is 3.13[b]. In the data set with Phytophthora infestans, this compound yielded an Eff. % of 98%.

As to `O=C(O)c1ccccc1C1CC(c2csc(C3CCN(C(=O)Cn4nc(C(F)F)cc4C(F)F)CC3)n2)=NO1` (centres unmarked) [I-134], the “logp [a]” value in data set [1] was 2.63[a]. Also, in the data set on Phytophthora infestans, the Eff. % amounted to 93%.

As for `CCNC(=O)Oc1ccccc1C1CC(c2csc(C3CCN(C(=O)Cn4nc(C(F)F)cc4C(F)F)CC3)n2)=NO1` (centres unmarked) [I-136], in data set [1], the “logp [a]” value is 2.84[a], and the “logp [b]” value was 2.81[b]. Also, the Eff. % in the data set with Phytophthora infestans worked out at 93%.

`O=C(Cn1nc(C(F)F)cc1C(F)F)N1CCC(c2nc(C3=NOC(c4cccc(OCC#Cc5cccc6ccccc56)c4)C3)cs2)CC1` (centres unmarked) [I-137]: in data set [1], the “logp [a]” value was 4.6[a], and the “logp [b]” value was 4.71[b]. Moreover, the Eff. % in the data set with Phytophthora infestans is recorded as 100%.

Consider `C=CCOCc1ccccc1C1CC(c2csc(C3CCN(C(=O)Cn4nc(C(F)F)cc4C(F)F)CC3)n2)=NO1` (centres unmarked) [I-139], for which, in data set [1], the “logp [a]” value is 4.11[a]. This compound also yielded an Eff. % in the data set on Phytophthora infestans of 80%.
